Reference: patent US10947252B2, “Inhibitors of KEAP1-Nrf2 protein-protein interaction” (Janssen Pharmaceutica NV, priority 2018, dated 2021)

test system: Glo-Response ARE-luc2P HEK293 cell line; assay: ARE luciferase reporter cell-based assay; conditions: Homo sapiens, HEK293, 24 h, average of results obtained;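 note: luciferase signal tracks Nrf2 activation of the ARE once compounds disrupt KEAP1-Nrf2 binding, read with One-Glo reagent, DMSO serving as low control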

Row | Structure (SMILES) | EC50 [nM]
1 | Cc1ccc([C@H](CC(=O)O)c2ccc3c(nnn3CC3CC3)c2C)cc1CN1CC2(CC2)N(C)c2ncccc2S1(=O)=O (single isomer, unassigned) [Example 78, (*S)-3-(1-(Cyclopropylmethyl)-4-methyl-1H-benzo[d][1,2,3]triazol-5-yl)-3-(4-methyl-3-((5′-methyl-1′,1′-dioxido-5′H-spiro[cyclopropane-1,4′-pyrido[2,3-f][1,2,5]thiadiazepin]-2′(3′H)-yl)methyl)phenyl)propanoic Acid] | 8.9
2 | Cc1c([C@H](CC(=O)O)c2ccc(Cl)c(CN3CC4(COC4)Oc4ccccc4S3(=O)=O)c2)ccn2c(C(F)(F)F)nnc12 (single isomer, unassigned) [Example 96, (*R)-3-(4-Chloro-3-((1′,1′-dioxoidospiro[benzo[b]]oxethiazepine-4,3′-oxetan]-2(3H)-yl)methyl)phenyl)-3-(8-methyl-3-(trifluoromethyl)-[1,2,4]triazolo[4,3-a]pyridine-7-yl)propanoic Acid] | 491
3 | Cc1c([C@@H](CC(=O)O)c2ccc(Cl)c(CN3CC4(COC4)Oc4ccccc4S3(=O)=O)c2)ccn2c(C(F)(F)F)nnc12 (single isomer, unassigned) [Example 97, (*S)-3-(4-Chloro-3-((1′,1′-dioxoidospiro[benzo[b]]oxethiazepine-4,3′-oxetan]-2(3H)-yl)methyl)phenyl)-3-(8-methyl-3-(trifluoromethyl)-[1,2,4]triazolo[4,3-a]pyridine-7-yl)propanoic Acid] | 5290
4 | Cc1ccc([C@H](CC(=O)O)c2ccn3c(C(F)(F)F)nnc3c2C)cc1CN1CC2(CC2)Oc2ccc(F)cc2S1(=O)=O (single isomer, unassigned) [Example 98, (*S)-3-(3-((8-Fluoro-1,1-dioxidospiro[benzo[b][1,4,5]oxathiazepin]-4,1′-cyclopropan]-2(3H)-yl)methyl)-4-methylphenyl)-3-(8-methyl-3-(trifluoromethyl)-[1,2,4]triazolo[4,3-a]pyridin-7-yl)propanoic Acid] | 16
5 | Cc1ccc([C@H](CC(=O)O)c2ccn3c(C(F)(F)F)nnc3c2C)cc1CN1CC2(CC2)Oc2nc(Cl)ccc2S1(=O)=O (single isomer, unassigned) [Example 100, (*S)-3-(3-((7′-Chloro-1′,1′-dioxidospiro(cyclopropane-1.4′-pyrido[2,3-b][1,4,5]oxathiazepin]-2′(3′H)-yl)methyl)-4-methylphenyl)-3-(8-methyl-3-(trifluoromethyl)-[1,2,4]triazolo[4,3-a]pyridin-7-yl)propanoic Acid] | 13.3
6 | COCCCOc1ccc2c(n1)OC1(CC1)CN(Cc1cc([C@H](CC(=O)O)c3ccn4c(C(F)(F)F)nnc4c3C)ccc1C)S2(=O)=O (single isomer, unassigned) [Example 109, (*S)-3-(-3-((7′-((3-Methoxypropoxy)-1′,1′-dioxidospiro[cyclopropane-1,4′-pyrido[2,3-b][1,4,5]oxathiazepin]-2′(3′H)-yl)methyl)-4-methylphenyl)-3-(8-methyl-3-(trifluoromethyl)-[1,2,4[triazolo[4,3-a]pyridine-7-yl)propanoic Acid] | 128
7 | Cc1ccc([C@H](CC(=O)O)c2ccn3c(C(F)(F)F)nnc3c2C)cc1CN1CC2(CC2)Oc2nc(N(C)CCO)ccc2S1(=O)=O (single isomer, unassigned) [Example 110, (*S)-3-(-3-((7′-((3-Hydroxyethyl)(methyl)amino)-1′,1′-dioxidospiro[cyclopropane-1,4′-pyrido[2,3-b][1,4,5]oxathiazepin]-2′(3′H)-yl)methyl)-4-methylphenyl)-3-(8-methyl-3-(trifluoromethyl)-[1,2,4[triazolo[4,3-a]pyridine-7-yl)propanoic Acid] | 485
8 | CCCCNc1ccc2c(n1)OC1(CC1)CN(Cc1cc([C@H](CC(=O)O)c3ccn4c(C(F)(F)F)nnc4c3C)ccc1C)S2(=O)=O (single isomer, unassigned) [Example 113, (*S)-3-(3-((7′-(Butylamino)-1′,1′-dioxidospiro[cyclopropane-1,4′-pyrido[2,3-b][1,4,5]oxathiazepin]-2′(3′H)-yl)methyl)-4-methylphenyl)-3-(8-methyl-3-(trifluoromethyl)-[1,2,4[triazolo[4,3-a]pyridine-7-yl)propanoic Acid] | 490
9 | Cc1ccc([C@@H](c2ccn3c(C(F)(F)F)nnc3c2C)C(C)(C)C(=O)O)cc1CN1CC2(CCOCC2)Oc2nc(NCCCO)ccc2S1(=O)=O (single isomer, unassigned) [Example 115, (*S)-3-(3-((7′-((3-Hydroxypropyl)amino)-1′,1′-dioxido-2,3,5,6-tetrahydrospiro[pyran-4,4′-pyrido[2,3-b][1,4,5]oxathiazepin]-2′(3′H)-yl)methyl)-4-methylphenyl)-2,2-dimethyl-3-(8-methyl-3-(trifluoromethyl)-[1,2,4[triazolo[4,3-a]pyridine-7-yl)propanoic Acid] | 133
10 | Cc1ccc([C@H](c2ccn3c(C(F)(F)F)nnc3c2C)C(C)(C)C(=O)O)cc1CN1CC2(CCOCC2)Oc2nc(NCCCO)ccc2S1(=O)=O (single isomer, unassigned) [Example 116, (*R)-3-(3-((7′-((3-Hydroxypropyl)amino)-1′,1′-dioxido-2,3,5,6-tetrahydrospiro[pyran-4,4′-pyrido[2,3-b][1,4,5]oxathiazepin]-2′(3′H)-yl)methyl)-4-methylphenyl)-2,2-dimethyl-3-(8-methyl-3-(trifluoromethyl)-[1,2,4[triazolo[4,3-a]pyridine-7-yl)propanoic Acid] | 991
11 | Cc1ccc([C@@H](c2ccn3c(C(F)(F)F)nnc3c2C)C(C)(C)C(=O)O)cc1CN1CC2(CCOCC2)Oc2nc(OCCN3CCCCC3)ccc2S1(=O)=O (single isomer, unassigned) [Example 127] | 11.8
12 | CCn1nnc2c(C)c([C@@H](CC(=O)O)c3ccc(C)c(CN4C[C@H]5COCCN5c5ncccc5S4(=O)=O)c3)ccc21 (single isomer, unassigned) [Example 136, (*S)-3-(3-(((*S)-5,5-Dioxido-7a,8,10,11-tetrahydro-[1,4]oxazino[3,4-d]pyrido[2,3-f][1,2,5]thiadiazepin-6(7H)-yl)methyl)-4-methylphenyl)-3-(1-ethyl-4-methyl-1H-benzo[d][1,2,3]triazol-5-yl)propanoic Acid] | 8.3
13 | CCn1nnc2c(C)c([C@H](CC(=O)O)c3ccc(C)c(CN4C[C@H]5COCCN5c5ncccc5S4(=O)=O)c3)ccc21 (single isomer, unassigned) [Example 137, (*R)-3-(3-(((*S)-5,5-Dioxido-7a,8,10,11-tetrahydro-[1,4]oxazino[3,4-d]pyrido[2,3-f][1,2,5]thiadiazepin-6(7H)-yl)methyl)-4-methylphenyl)-3-(1-ethyl-4-methyl-1H-benzo[d][1,2,3]triazol-5-yl)propanoic Acid] | 300
14 | CCn1nnc2c(C)c([C@@H](CC(=O)O)c3ccc(C)c(CN4C[C@@H]5COCCN5c5ncccc5S4(=O)=O)c3)ccc21 (single isomer, unassigned) [Example 139, (*S)-3-(3-(((*R)-5,5-Dioxido-7a,8,10,11-tetrahydro-[1,4]oxazino[3,4-d]pyrido[2,3-f][1,2,5]thiadiazepin-6(7H)-yl)methyl)-4-methylphenyl)-3-(1-ethyl-4-methyl-1H-benzo[d][1,2,3]triazol-5-yl)propanoic Acid] | 3.3
